US7205011B2, “Anti-inflammatory activity of a specific turmeric extract” (Board of Regents, Acting for and on behalf of, University …, priority 2003, dated 2007)
In brackets after ≈: the same amount, converted by molar mass. Like-named read-outs stand apart in the source and are kept apart here. Values belong to the compound of their own block, whether it stands above or below them.

Key:
[1] = tested on: LPS-induced PGE2 production; test: Inhibition of LPS-induced PGE2 production in PMA-differentiated HL-60 cells (ELISA); assay type: cell-based; conditions: Homo sapiens
[2] = tested on: LPS-induced TNF-α production; test: Inhibition of LPS-induced TNF-α production in PMA-differentiated HL-60 cells (ELISA); assay type: cell-based; conditions: Homo sapiens, read-out: IC50 TNF-α (50% inhibition of LPS-induced mediator production)
COX-2 expression = conditions: Lee et al. 2002; IC50 values not reported; cited from earlier work
COX-2 mRNA = test: COX-2 expression assay (Quantikine mRNA) in LPS-stimulated HL-60 cells; conditions: HL-60 cells + LPS
TNF-α = conditions: Chan et al. 1995; Abe et al. 1999; cited from earlier work
[3] = Table 1, curcuminoids from fraction 5, HL-60 cells, LPS 1 μg/ml, 24 hrs
[4] = Table 1, curcuminoids from fraction 5, HL-60 cells, LPS 1 μg/ml, 24 hrs, read-out: IC50 PGE2 (50% inhibition of LPS-induced mediator production)

SMILES: COc1cc(/C=C/C(O)=C/C(=O)/C=C/c2ccc(O)cc2)ccc1O (single isomer, unassigned) [Demethoxycurcumin, demethoxycurcumin]
IC50 ([2]; HL-60, 24 h): 24.7 µg/mL (≈ 73 µM) | IC50 ([1]; HL-60, 24 h, read-out: IC50 PGE2 (50% inhibition of LPS-induced mediator production)): 2.6 µg/mL (≈ 7.68 µM)

SMILES: CC(C)=CCC[C@@H](C)c1ccc(C)c(O)c1 [xanthorrhizol]
concentrations showing inhibition of COX-2 expression (COX-2 expression): 5 to 10 µg/mL

Second part, led by results:

IC50 ([1]; HL-60 cells, LPS 1 μg/ml, 24 hrs, read-out: IC50 for LPS-induced PGE2 production): 0.052 µg/mL (≈ 0.145 µM)
SMILES: COc1ccc2c(c1)c(CC(=O)O)c(C)n2C(=O)c1ccc(Cl)cc1 [indomethacin]

IC50 [2, 3]: 28.8 µg/mL (≈ 78.2 µM) | IC50 [1, 4]: 0.45 µg/mL (≈ 1.22 µM)
SMILES: COc1cc(/C=C/C(=O)CC(=O)/C=C/c2ccc(O)c(OC)c2)ccc1O (single isomer, unassigned) [Curcumin, curcumin]
inhibition (decrease) of COX-2 expression (COX-2 mRNA; 0.5 μg/mL, 24 hrs, relative to LPS alone = 100%): greater than 50% | inhibition of COX-2 expression (COX-2 mRNA; 1.0 μg/ml, 24 hrs, relative to LPS alone = 100%): greater than 50% | effect on COX-2 expression / COX-2 mRNA levels (COX-2 mRNA; concentration not given, result in words): inhibited COX-2 expression | concentration producing 50% decrease in production of TNF-α (TNF-α): 2 to 10 µg/mL

IC50 [2, 3]: 24.6 µg/mL (≈ 79.8 µM) | IC50 [1, 4]: 1.2 µg/mL (≈ 3.89 µM)
SMILES: O=C(/C=C/c1ccc(O)cc1)CC(=O)/C=C/c1ccc(O)cc1 (single isomer, unassigned) [Bisdemethoxycurcumin, bisdemethoxycurcumin]
